Calls of active or inactive are those of the source.

Usually IC50 stands for the concentration at which inhibition is half-maximal. Usually AC50 stands for the concentration at which the activity in the assay is half-maximal. Usually EC50 stands for the concentration that produces a half-maximal response.

Test [1] has as its target T1, Sentrin-specific protease 7 (Homo sapiens, UniProt Q9BQF6).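 Further: Luminescence-based dose-response confirmation of ultra-high-throughput screening hits, measuring inhibition of SENP7.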
T1 sequence (Q9BQF6 whole entry): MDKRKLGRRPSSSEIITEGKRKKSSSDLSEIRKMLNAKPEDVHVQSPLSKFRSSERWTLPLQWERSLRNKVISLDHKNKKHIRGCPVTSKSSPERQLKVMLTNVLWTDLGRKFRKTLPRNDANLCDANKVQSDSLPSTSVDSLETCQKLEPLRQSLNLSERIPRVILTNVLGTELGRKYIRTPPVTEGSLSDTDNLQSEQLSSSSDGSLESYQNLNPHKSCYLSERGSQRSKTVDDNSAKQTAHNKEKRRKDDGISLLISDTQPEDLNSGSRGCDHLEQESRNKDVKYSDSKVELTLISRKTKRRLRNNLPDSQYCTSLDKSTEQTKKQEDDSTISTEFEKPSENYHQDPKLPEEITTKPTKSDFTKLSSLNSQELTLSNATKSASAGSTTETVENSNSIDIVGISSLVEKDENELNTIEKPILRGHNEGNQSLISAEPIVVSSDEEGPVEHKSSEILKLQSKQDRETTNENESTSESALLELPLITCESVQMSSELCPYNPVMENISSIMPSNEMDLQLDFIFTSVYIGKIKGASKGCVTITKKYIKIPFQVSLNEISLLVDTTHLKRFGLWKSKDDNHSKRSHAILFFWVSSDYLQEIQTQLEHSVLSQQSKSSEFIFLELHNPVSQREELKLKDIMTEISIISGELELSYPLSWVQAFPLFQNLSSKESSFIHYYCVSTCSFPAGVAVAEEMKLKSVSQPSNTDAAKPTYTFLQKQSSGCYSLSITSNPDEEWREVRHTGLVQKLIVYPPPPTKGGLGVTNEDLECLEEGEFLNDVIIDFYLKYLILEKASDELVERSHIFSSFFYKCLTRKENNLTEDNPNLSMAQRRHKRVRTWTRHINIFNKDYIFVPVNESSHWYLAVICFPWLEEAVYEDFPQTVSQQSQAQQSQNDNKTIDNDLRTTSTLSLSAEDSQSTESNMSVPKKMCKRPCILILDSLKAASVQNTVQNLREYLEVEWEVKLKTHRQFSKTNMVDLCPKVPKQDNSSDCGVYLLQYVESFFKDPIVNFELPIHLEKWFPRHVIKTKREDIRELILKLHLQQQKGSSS
In kind it is functional.

The target of the next test is Cytochrome P450 2C9 (Homo sapiens, UniProt P11712).
Cytochrome P450 2C9, sequence (P11712 whole entry): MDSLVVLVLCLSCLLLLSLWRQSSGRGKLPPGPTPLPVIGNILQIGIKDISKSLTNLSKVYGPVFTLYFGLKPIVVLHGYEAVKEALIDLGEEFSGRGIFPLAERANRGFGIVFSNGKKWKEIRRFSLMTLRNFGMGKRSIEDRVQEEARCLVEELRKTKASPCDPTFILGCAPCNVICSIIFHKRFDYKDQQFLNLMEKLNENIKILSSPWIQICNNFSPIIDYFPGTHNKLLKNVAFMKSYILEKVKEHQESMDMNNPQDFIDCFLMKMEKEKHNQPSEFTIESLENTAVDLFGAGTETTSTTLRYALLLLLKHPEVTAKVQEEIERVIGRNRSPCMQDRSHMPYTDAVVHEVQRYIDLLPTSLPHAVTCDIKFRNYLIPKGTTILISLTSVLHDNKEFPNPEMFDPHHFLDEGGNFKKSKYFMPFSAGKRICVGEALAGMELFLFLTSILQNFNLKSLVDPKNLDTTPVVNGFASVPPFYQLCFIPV
The target in test [2] is T2, Endoribonuclease toxin MazF (Escherichia coli K-12, UniProt P0AE70).
T2 sequence (P0AE70 whole entry): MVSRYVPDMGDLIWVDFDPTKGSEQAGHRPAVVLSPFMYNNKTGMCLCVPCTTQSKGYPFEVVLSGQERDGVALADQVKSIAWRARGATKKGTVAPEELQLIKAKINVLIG
As to the kind of experiment: activation of MazEF endoribonuclease cleavage – biochemical, fluorescence, single-stranded RNA substrate, uHTS hits, dose response (AID 588481). The format is functional.

Test [3] deals with T3, Sentrin-specific protease 8 (Homo sapiens, UniProt Q96LD8).
T3 sequence (Q96LD8 whole entry): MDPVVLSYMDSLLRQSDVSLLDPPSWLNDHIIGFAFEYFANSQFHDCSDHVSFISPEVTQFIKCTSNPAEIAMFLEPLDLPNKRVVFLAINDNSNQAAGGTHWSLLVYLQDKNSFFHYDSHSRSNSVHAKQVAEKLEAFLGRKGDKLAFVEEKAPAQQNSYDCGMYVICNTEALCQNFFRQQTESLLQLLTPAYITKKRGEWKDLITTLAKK
The format is functional.

Test [4] deals with Induced myeloid leukemia cell differentiation protein Mcl-1 (Homo sapiens, UniProt Q07820). The format is functional.
Induced myeloid leukemia cell differentiation protein Mcl-1, sequence (Q07820 whole entry): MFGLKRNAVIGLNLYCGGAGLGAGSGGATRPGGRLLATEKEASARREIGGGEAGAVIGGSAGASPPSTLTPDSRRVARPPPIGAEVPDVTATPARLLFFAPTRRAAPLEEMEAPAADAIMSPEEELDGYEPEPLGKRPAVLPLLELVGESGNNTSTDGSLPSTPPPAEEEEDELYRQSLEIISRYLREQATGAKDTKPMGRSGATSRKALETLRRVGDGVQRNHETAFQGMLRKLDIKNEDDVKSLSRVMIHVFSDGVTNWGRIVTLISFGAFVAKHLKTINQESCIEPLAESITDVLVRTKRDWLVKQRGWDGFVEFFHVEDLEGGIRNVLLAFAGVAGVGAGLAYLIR
For test [5], the target named is T4, Microphthalmia-associated transcription factor (Homo sapiens, UniProt O75030).
T4 sequence (O75030 whole entry): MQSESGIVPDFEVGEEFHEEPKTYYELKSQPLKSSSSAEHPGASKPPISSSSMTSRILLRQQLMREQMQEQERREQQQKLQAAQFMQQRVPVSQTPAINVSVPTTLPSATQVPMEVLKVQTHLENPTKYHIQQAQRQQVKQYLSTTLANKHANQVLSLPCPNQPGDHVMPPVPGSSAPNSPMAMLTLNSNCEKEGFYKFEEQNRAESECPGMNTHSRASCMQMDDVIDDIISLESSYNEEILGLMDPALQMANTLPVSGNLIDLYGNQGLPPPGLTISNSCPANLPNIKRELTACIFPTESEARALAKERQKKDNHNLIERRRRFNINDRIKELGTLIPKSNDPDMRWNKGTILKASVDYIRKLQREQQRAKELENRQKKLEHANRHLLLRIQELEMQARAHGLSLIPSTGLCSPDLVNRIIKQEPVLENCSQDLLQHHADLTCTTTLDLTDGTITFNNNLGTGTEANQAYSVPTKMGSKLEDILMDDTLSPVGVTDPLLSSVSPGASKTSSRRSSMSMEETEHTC
Briefly: reducers of TRPM1 reporter luminescence, concentration series – cell-based, SK-MEL-5, cherry-picked, set 3, MITF inhibitor project, dose response (AID 493073).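 Further: SK-MEL-5 melanoma cells with luciferase driven by the MITF target TRPM1 promoter.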 In kind it is functional.

The next test concerns the target Genome polyprotein (dengue virus type 2, UniProt P29990). Briefly: flavivirus cap methylation enzyme inhibition – biochemical, confirmation dose response, primary screen (AID 588689). In kind it is functional.

Genome polyprotein, sequence (P29990 2492-3391 limits assumed): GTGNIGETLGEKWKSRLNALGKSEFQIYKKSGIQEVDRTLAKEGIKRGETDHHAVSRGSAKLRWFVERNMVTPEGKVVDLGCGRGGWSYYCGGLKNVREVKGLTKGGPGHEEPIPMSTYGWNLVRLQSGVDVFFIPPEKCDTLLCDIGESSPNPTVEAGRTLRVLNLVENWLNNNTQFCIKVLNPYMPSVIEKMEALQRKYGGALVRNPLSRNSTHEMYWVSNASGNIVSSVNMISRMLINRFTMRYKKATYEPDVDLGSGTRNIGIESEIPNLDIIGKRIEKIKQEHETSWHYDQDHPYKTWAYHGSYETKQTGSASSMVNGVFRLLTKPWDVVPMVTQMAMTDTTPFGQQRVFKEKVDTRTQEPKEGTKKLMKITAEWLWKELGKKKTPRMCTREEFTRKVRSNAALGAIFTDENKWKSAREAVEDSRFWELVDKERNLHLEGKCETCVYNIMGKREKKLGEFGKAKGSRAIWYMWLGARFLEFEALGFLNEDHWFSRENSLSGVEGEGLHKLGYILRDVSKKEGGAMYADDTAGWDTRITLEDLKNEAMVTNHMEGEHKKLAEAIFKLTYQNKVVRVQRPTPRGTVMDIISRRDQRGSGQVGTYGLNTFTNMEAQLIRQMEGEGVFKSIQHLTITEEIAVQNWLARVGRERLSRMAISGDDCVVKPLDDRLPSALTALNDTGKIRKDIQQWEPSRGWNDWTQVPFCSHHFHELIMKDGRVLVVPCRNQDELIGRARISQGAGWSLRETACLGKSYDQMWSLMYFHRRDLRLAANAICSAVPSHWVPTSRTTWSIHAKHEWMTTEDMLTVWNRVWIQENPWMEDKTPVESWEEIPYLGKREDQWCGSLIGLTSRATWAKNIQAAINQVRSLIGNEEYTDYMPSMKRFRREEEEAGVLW

Take `CC(C)=CCC1=C(OCC(=O)O)C(=O)c2ccccc2C1=O`: the IC50 in test [1] is 3.97 µM (active). The AC50 on Cytochrome P450 2C9 was 3.98 µM (inconclusive).

On to `Cc1[nH][nH]c(=O)c1C(c1c(C)[nH][nH]c1=O)c1cn(Cc2ccccc2Cl)c2ccccc12`, for which the EC50 in test [2] was > 99 µM (inactive). Further, in test [3], the IC50 is 4.8 µM (active).

As to `Cc1cccc(NC2=C(NC(=O)c3ccccc3)C(=O)c3ccccc3C2=O)c1`, the values for the IC50 (in test [4]; at Genome polyprotein) were 2.86 µM (active) and 58.4 µM (active), respectively. Further, in test [5], the AC50 was 9.99 µM (active).

For the origin of these results see ChEMBL document CHEMBL1201862, “PubChem BioAssay data set” (2004).
